Patent US20100240642A1, “1H-Indole-2-Carboxylic Acid Derivatives Useful As PPAR Modulators” (SMITHKLINE BEECHAM CORPORATION, priority 2006, published 2010)

Target: T1, hPPARγ receptor (Homo sapiens, UniProt P37231)
T1 construct: expressed in transfected cells; host or cells: CV-1 (African Green Monkey kidney, ATCC CCL-70)
T1 sequence (P37231 172-475 isoform P37231-2): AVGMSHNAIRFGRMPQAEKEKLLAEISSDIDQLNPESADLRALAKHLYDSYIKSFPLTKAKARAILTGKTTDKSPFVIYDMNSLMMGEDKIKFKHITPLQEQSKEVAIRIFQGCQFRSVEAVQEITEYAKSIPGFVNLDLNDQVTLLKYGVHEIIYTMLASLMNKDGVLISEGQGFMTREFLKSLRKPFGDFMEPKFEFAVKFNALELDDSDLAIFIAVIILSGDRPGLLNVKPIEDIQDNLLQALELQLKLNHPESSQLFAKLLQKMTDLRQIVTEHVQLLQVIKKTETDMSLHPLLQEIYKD
Assay: PPARγ Cell-based luciferase assay
Details: CV-1, read-out: agonism of the hPPARγ receptor (activation relative to full agonist rosiglitazone)
Text: Plasmids—PCR primers containing Kpnl and BamHI restriction sites were used to amplify PPARγ ligand binding domain (LBD) fragment (172-475) from a full-length human clone. The LBD fragment was ligated into the multiple cloning site of pFA-CMV (Stratagene). The resulting construct (pFA-CMV-GAL4-hPPARγLBD carried a fusion of the LBD with the yeast-derived GAL4 DNA-binding domain under the control of the CMV immediate early promoter. Reporter construct UAStkLuc carries a single 17 bp (CGGAGTACTGTCCTCCG) upstream activating sequence (UAS), the tk minimal promoter, and the firefly luciferase gene. The integrity of each construct was confirmed by diagnostic restriction digestion and by sequencing. Plasmid DNA was prepared using Qiagen Maxi-Prep kits.
PPARγ Cell-based luciferase assay—African Green Monkey kidney cell line CV-1 (ATCC CCL-70) was maintained in Dulbecco's Modified Eagle's Medium (D-MEM) containing 10% fetal bovine serum, 2 mM glutamine, and 1% penicillin/streptomycin (pen/strep). In preparation for luciferase assays, CV-1 cells were grown in charcoal-stripped cell medium containing D-MEM/F-12 medium supplemented with 5% or 3% dextran-treated/charcoal-stripped (CS) fetal bovine serum, 2 mM glutamine, with or without 1% pen/strep, as described below. CS fetal bovine serum was purchased from Hyclone; all other cell culture reagents were from Gibco.
The luciferase protocol is a multi-day procedure. On day 1, confluent cells in maintenance medium were subcultured 1:10 into T-175 cm^2 flasks containing 50 mL of 3% CS medium with pen/strep. These flasks were allowed to incubate at 5% CO2 and 37° C. for 72 hours.
Cells were harvested by trypsinization and then transfected using FuGENE (Roche) according to the manufacturer's specifications. Briefly, each transfection contained 0.55 μg pFA_CMV_GAL4_hPPARγ_LBD plasmid, 10.9 μg UAStkLUC, and 24 μg pBluescript (carrier DNA). Plasmid DNA was mixed with FuGENE in OptiMEM-1 medium and incubated for 30 min at room temperature. During this incubation, cells were harvested into 3% CS medium without pen-strep and dispensed at 14 million cells per T-175 cm^2 flask. Transfection mixes were added to the flasks and incubated overnight at 5% CO2 and 37° C.
Transfected cells were added to 384-well plates containing pharmacological agents. Rosiglitazone standard was reconstituted in DMSO at 1 mM. For 11-point dose-response experiments, the compounds were 3-fold serially diluted in DMSO and then stamped to 384-well assay plates (NUNC, catalog #164564) at 0.5 μL/well using a Beckman FX. DMSO and agonist control compound Rosiglitazone (1 mM) were each stamped at 0.5 μL/well to columns 23 and 24, respectively, of the 384-well plates. Transfected cells were harvested in 5% CS medium with pen/strep and dispensed at 10,000 cells/well (50 μL) onto the prepared 384-well compound plates using a Titertek Multidrop. Following overnight incubation at 5% CO2 and 37° C., Steady-Glo reagent (Promega) was added to the assay plates using a Multidrop. Plates were incubated for 10 min to ensure complete cell lysis and read in a ViewLux (PerkinElmer). […] Partial agonism is defined here as 20-80% activation (relative to full agonist rosiglitazone) at concentrations of 10^−6 M or less.

SMILES	Emax [%]
COCCOc1cc(Cn2c(C(=O)O)c(-c3ccc(C(C)(C)C)cc3)c3ccccc32)cc(OC(=O)N2CCNC2=O)c1 [Example 53, 3-[4-(1,1-dimethylethyl)phenyl]-1-[(3-{[2-(methyloxy)ethyl]oxy}-5-{[(2-oxo-1-imidazolidinyl)carbonyl]oxy}phenyl)methyl]-1H-indole-2-carboxylic acid]	20 to 80
COCCOc1cc(Cn2c(C(=O)O)c(-c3ccc(C(C)(C)C)cc3)c3ccccc32)cc(OC(=O)N(C)C)c1 [Example 49, 1-[(3-{[(dimethylamino)carbonyl]oxy}-5-{[2-(methyloxy)ethyl]oxy}phenyl)methyl]-3-[4-(1,1-dimethylethyl)phenyl]-1H-indole-2-carboxylic acid]	20 to 80

Same assay, conditions: CV-1 cells transfected with GAL4-hPPARγ LBD and UAStkLuc; at concentrations of 10^−6 M or less; read-out: agonism of the hPPARγ receptor (activation relative to full agonist rosiglitazone)

SMILES	Emax [%]
CSc1ccc(-c2cccc(Cn3c(C(=O)O)c(-c4ccc(C(C)(C)C)cc4)c4ccccc43)c2)cc1 [Example 23, 3-[4-(1,1-dimethylethyl)phenyl]-1-{[4′-(methylthio)-3-biphenylyl]methyl}-1H-indole-2-carboxylic acid]	20 to 80
Cc1ccc(-c2ccc(C(=O)N(C)C)cc2)cc1Cn1c(C(=O)O)c(-c2ccc(C(C)(C)C)cc2)c2ccccc21 [Example 28, 1-({4′-[(dimethylamino)carbonyl]-4-methyl-3-biphenylyl}methyl)-3-[4-(1,1-dimethylethyl)phenyl]-1H-indole-2-carboxylic acid]	20 to 80
CC(C)(C)c1ccc(-c2c(C(=O)O)n(Cc3cc(OCc4ccccc4)cc(OCC4CC4)c3)c3ccccc23)cc1 [Example 1, 1-({3-[(cyclopropylmethyl)oxy]-5-[(phenylmethyl)oxy]phenyl}methyl)-3-[4-(1,1-dimethylethyl)phenyl]-1H-indole-2-carboxylic acid]	20 to 80
Cc1ccc(N2CCOCC2)cc1Cn1c(C(=O)O)c(-c2ccc(C(C)(C)C)cc2)c2ccccc21 [Example 27, 3-[4-(1,1-dimethylethyl)phenyl]-1-{[2-methyl-5-(4-morpholinyl)phenyl]methyl}-1H-indole-2-carboxylic acid]	20 to 80
COCCOc1cc(Cn2c(C(=O)O)c(-c3ccc(C(C)(C)C)cc3)c3ccccc32)cc(-c2ccc(C(=O)O)cc2)c1 [Example 20]	20 to 80
COc1ccc(-c2c(C(=O)O)n(Cc3cccc(-c4ccc(O)cc4)c3)c3ccccc23)cn1 [Example 16, 1-[(4′-hydroxy-3-biphenylyl)methyl]-3-[6-(methyloxy)-3-pyridinyl]-1H-indole-2-carboxylic acid]	20 to 80
Cc1ccc(-c2ccc(O)cc2)cc1Cn1c(C(=O)O)c(-c2ccc(C(C)(C)C)cc2)c2ccccc21 [Example 10, 3-[4-(1,1-dimethylethyl)phenyl]-1-[(4′-hydroxy-4-methyl-3-biphenylyl)methyl]-1H-indole-2-carboxylic acid]	20 to 80
COc1ccc(-c2c(C(=O)O)n(Cc3cc(-c4ccc(C(=O)O)cc4)ccc3C)c3ccccc23)cn1 [Example 21, 1-[(4′-carboxy-4-methyl-3-biphenylyl)methyl]-3-[6-(methyloxy)-3-pyridinyl]-1H-indole-2-carboxylic acid]	20 to 80

Continued, values first:

Emax [%]	SMILES
20 to 80	COCCOc1cc(Cn2c(C(=O)O)c(-c3ccc(C(C)(C)C)cc3)c3ccccc32)cc(OC(=O)N2CCOCC2)c1 [Example 52, 3-[4-(1,1-dimethylethyl)phenyl]-1-({3-{[2-(methyloxy)ethyl]oxy}-5-[(4-morpholinylcarbonyl)oxy]phenyl}methyl)-1H-indole-2-carboxylic acid]
20 to 80	COCCOc1cc(Cn2c(C(=O)O)c(-c3ccc(C(C)(C)C)cc3)c3ccccc32)cc(OCc2ccccc2)c1 [Example 67, 3-[4-(1,1-dimethylethyl)phenyl]-1-({3-{[2-(methyloxy)ethyl]oxy}-5-[(phenylmethyl)oxy]phenyl}methyl)-1H-indole-2-carboxylic acid]
20 to 80	CNC(=O)c1cccc(-c2ccc(C)c(Cn3c(C(=O)O)c(-c4ccc(C(C)(C)C)cc4)c4ccccc43)c2)c1 [Example 29, 3-[4-(1,1-dimethylethyl)phenyl]-1-({4-methyl-3′-[(methylamino)carbonyl]-3-biphenylyl}methyl)-1H-indole-2-carboxylic acid]
20 to 80	CN(C)CCCOc1cc(Cn2c(C(=O)O)c(-c3ccc(C(C)(C)C)cc3)c3ccccc32)cc(OCC2CC2)c1 [Example 43, 1-[(3-[(cyclopropylmethyl)oxy]-5-{[3-(dimethylamino)propyl]oxy}phenyl)methyl]-3-[4-(1,1-dimethylethyl)phenyl]-1H-indole-2-carboxylic acid]
20 to 80	COCCOc1cc(Cn2c(C(=O)O)c(Oc3ccc(C(C)(C)C)cc3)c3ccccc32)cc(OCCOC)c1 [Example 61, 1-[(3,5-bis{[2-(methyloxy)ethyl]oxy}phenyl)methyl]-3-{[4-(1,1-dimethylethyl)phenyl]oxy}-1H-indole-2-carboxylic acid]
20 to 80	CC(C)(C)c1ccc(-c2c(C(=O)O)n(Cc3cccc(N4CCN(S(C)(=O)=O)CC4)c3)c3ccccc23)cc1 [Example 34, 3-[4-(1,1-dimethylethyl)phenyl]-1-({3-[4-(methylsulfonyl)-1-piperazinyl]phenyl}methyl)-1H-indole-2-carboxylic acid]
20 to 80	COCCOc1cc(Cn2c(C(=O)O)c(Cc3cccc(C(F)(F)F)c3)c3ccccc32)cc(OCC2CC2)c1 [Example 56, 1-[(3-[(cyclopropylmethyl)oxy]-5-{[2-(methyloxy)ethyl]oxy}phenyl)methyl]-3-{[3-(trifluoromethyl)phenyl]methyl}-1H-indole-2-carboxylic acid]
20 to 80	COCCOc1cc(Cn2c(C(=O)O)c(-c3ccc(C(C)(C)C)cc3)c3ccccc32)cc(C(F)(F)F)c1 [Example 64, 3-[4-(1,1-dimethylethyl)phenyl]-1-{[3-{[2-(methyloxy)ethyl]oxy}-5-(trifluoromethyl)phenyl]methyl}-1H-indole-2-carboxylic acid]
20 to 80	CN(C)CCOc1cc(Cn2c(C(=O)O)c(-c3ccc(C(C)(C)C)cc3)c3ccccc32)cc(OCC2CC2)c1 [Example 40, 1-[(3-[(cyclopropylmethyl)oxy]-5-{[2-(dimethylamino)ethyl]oxy}phenyl)methyl]-3-[4-(1,1-dimethylethyl)phenyl]-1H-indole-2-carboxylic acid]
20 to 80	CC(C)(C)OC(=O)NS(=O)(=O)N1CCN(c2cccc(Cn3c(C(=O)O)c(-c4ccc(C(C)(C)C)cc4)c4ccccc43)c2)CC1 [Example 38, 1-[(3-{4-[({[(1,1-dimethylethyl)oxy]carbonyl}amino)sulfonyl]-1-piperazinyl}phenyl)methyl]-3-[4-(1,1-dimethylethyl)phenyl]-1H-indole-2-carboxylic acid]
20 to 80	COCCOC(=O)N1CCN(c2cccc(Cn3c(C(=O)O)c(-c4ccc(C(C)(C)C)cc4)c4ccccc43)c2)CC1 [Example 48, 3-[4-(1,1-dimethylethyl)phenyl]-1-({3-[4-({[2-(methyloxy)ethyl]oxy}carbonyl)-1-piperazinyl]phenyl}methyl)-1H-indole-2-carboxylic acid]
20 to 80	CC(C)OC(=O)N1CCN(c2cccc(Cn3c(C(=O)O)c(-c4ccc(C(C)(C)C)cc4)c4ccccc43)c2)CC1 [Example 47, 3-[4-(1,1-dimethylethyl)phenyl]-1-{[3-(4-{[(1-methylethyl)oxy]carbonyl}-1-piperazinyl)phenyl]methyl}-1H-indole-2-carboxylic acid]
